Measurements reported in patent US5459257A, “Sulfated oligoglycoside acylate and antiviral agent containing the same as active ingredient” (priority 1993, dated 1995).
Where two headings read alike, the source gives them in different places.

What was measured:
[1] = system: rabbit blood; assay: effects on blood clotting, whole blood clotting time; conditions: for comparing strength of effects on blood clotting: at the concentration of more than 0.1%; for clotting time: rabbit whole blood
Protocol: (§3) Sodium heparin (Kodama) used as positive control was diluted with saline at the concentration of 120 U/ml.
(§4) Japan White rabbits (supplier: Kitayama Labes), 4 months old, were used for this study.
(§5) Cardiopuncture was performed in a rabbit, and at when blood was started to be flowed into the syringe, the timer was made to start. The whole blood collected was carefully flowed into double glass tubes incubated. After putting the samples calmly for 3 minutes, the first tube was tilted gently every 30 seconds and the current of blood was observed. When blood in the first tube was clotted, the same operation was performed in the second tube. When the blood was clotted in the second tube, the timer was stopped, and this end point was recorded as whole blood clotting time.

[2] = system: HIV; assay: anti-HIV activity, inhibition of HIV-induced cytopathicity in MT-4 cells (MTT method); format: cell-based; conditions: for EC50: HIV-infected MT-4 cells, MOI 0.01, 5 days, 37° C.; for S.I. (CC50/EC50): MT-4 cells, ratio of CC50 to EC50, 7200 min
Protocol: (§1) A test compound having various concentrations were placed in a 96-well microtiter plate along with HIV-infected MT-4 cells (2.5×10^4 /well, MOI (multiplicity of infection): 0.01) immediately after infection thereof. In order to ascertain the cytotoxicty of the test compound with respect to MT-4 cells, mock-infected (non-infected) cells were cultured in an identical manner along with the test compound of various concentrations. After incubating for 5 days at 37° C. in a CO2 atmosphere, the number of living cells were determined by using MTT method. The anti-HIV activity was evaluated with the method written by R. Pauwels, et al. (R. Pauwels, et al., J. Virol Methods, 20, 309 to 321 (1988)).
The anti-HIV activity is shown in terms of EC50 (50% effective concentration) that is the concentration of a compound which inhibits 50% of HIV-induced cytopathicity in MT-4 cells, and the cytotoxity is shown in terms of CC50 (cytotoxic concentration) that is the concentration of a compound which reduces 50% of viability of mock-infected MT-4 cells. Selectivity Index (S.I.) is expressed by the ratio of CC50 to EC50 (CC50 /EC50).

[3] = system: MT-4 cells; assay: cytotoxicity in mock-infected MT-4 cells (MTT method); format: cell-based; conditions: mock-infected MT-4 cells, 5 days, 37° C.
Protocol: as §1, with “method.” for “method. The anti-HIV activity was evaluated with the method written by R. Pauwels, et al. (R. Pauwels, et al., J. Virol Methods, 20, 309 to 321 (1988)).”
Selectivity Index (S.I.) is expressed by the ratio of CC50 to EC50 (CC50 /EC50).

[4] = system: HIV; assay: anti-HIV activity of serum after oral administration to mice; format: in vivo; conditions: for reciprocal number of concentration at 50% cell viability: mouse serum
Protocol: The effects of orally administration of Compound 1 in vivo experiment were studied by duration of the activity using mouse.
Compound 1 was dissolved with distilled water at the concentrations of 500 mg/10 ml and 1000 mg/10 ml.
(§2) Mouse (Crj:CD-1(ICR)) (supplier: Charles River Japan, Inc.), six weeks old were used for this study.
Three groups (for 1, 2 and 3 hours) of mice (one group: three mice) were used for the in vivo experiments. Nine mice were given an orally administered of Compound 1 at a dose of 500 mg/kg or 1.0 g/kg.
At decided times after administration, the blood was collected and the serum was collected by centrifugation at low speed.
The serum samples were stored at -80° C. until assayed.
Each serum sample was diluted to evaluate the effective concentration with culture medium. The evaluation method was the same as described the section of Anti-HIV activity.

[5] = system: HIV; assay: anti-HIV activity of serum after intravenous administration to mice; format: in vivo; conditions: for reciprocal number of concentration of the compound at 50% cell viability / reciprocal number of concentration of dextran sulfate at 50% cell viability: mouse serum; for reciprocal number of concentration of the compound at 50% cell viability: 32 mg/kg; for detection/duration of activity in serum: mouse, i.v., Compound 6 32 mg/kg up to 12 hours, dextran sulfate 80 mg/kg up to 60 min; for reciprocal number of concentration of dextran sulfate at 50% cell viability: 80 mg/kg
Protocol: The effects of Compound 6 and dextran sulfate in vivo experiment were studied by duration of the activity using mouse.
Compound 6 were dissolved with saline at the concentration of 32 mg/10 ml. Dextran sulfate (Control compound: M.W=8000: Sigma) were dissolved with it at the concentration of 80 mg/10 ml.
as §2
Four groups (for 1, 4, 6 and 12 hours) of mice (one group: three mice) were used for the in vivo experiments of the Compound 6.
The twelve mice were given an intravenous injection of the compound (in the tail vein; Dose 32 mg/kg).
Three groups (for 20, 40 and 60 minutes) of mice (one group: two mice) were used for dextran sulfate such a method as described in Compound 6 (Dose 80 mg/kg). At decided times after injection, the blood was collected and serum was separated by centrifugation at low speed.
The serum samples were stored at -80° C. until assayed. Each serum sample was diluted with culture medium to evaluate the effective concentration (the maximum concentration was set up to 10%). The method of this anti-HIV activity evaluation was the same one as described in EXAMPLE 49.
(*)Various concentration of the serum solutions (diluted with the medium
and the maximum concentration is 10%) were used for evaluation of the
shown. That is why the higher the reciprocal number, the higher the […]

[6] = system: rabbit blood
Protocol: as §3, §4, §5

[7] = in vivo; cited from earlier work

Substance | EC50 [2] | S.I. (CC50/EC50) [2] | CC50 ([3]; 7200 min) | CC50 [3] | also measured
Sulfated n-dodecyl O-benzoyl-β-D-laminaripentaoside [Compound 1] | 3.2 µg/mL | 254 | 814 µg/mL | – | comparing strength of effects on blood clotting [1]: dextran sulfate>1>6; clotting time ([1]; 0.01%): 8.0 ± 0.5 min; clotting time ([1]; 0.1%): 8.3 ± 0.7 min; clotting time ([1]; 1.0%): 27.3 ± 3.0 min; reciprocal number of concentration at 50% cell viability ([4]; 1 hour after oral administration, 500 mg/kg): 15.9; reciprocal number of concentration at 50% cell viability ([4]; 1 hour after oral administration, 1.0 g/kg): 55.6; reciprocal number of concentration at 50% cell viability ([4]; 2 hours after oral administration, 500 mg/kg): 19.2; reciprocal number of concentration at 50% cell viability ([4]; 2 hours after oral administration, 1.0 g/kg): 83.8; reciprocal number of concentration at 50% cell viability ([4]; 3 hours after oral administration, 500 mg/kg): 26.7; reciprocal number of concentration at 50% cell viability ([4]; 3 hours after oral administration, 1.0 g/kg): 54.1; detection of activity in serum after oral administration ([4]; mouse, oral, 500 mg/kg or 1.0 g/kg): detected at a high concentration
Sulfated n-dodecyl O-2,4-difluorobenzoyl-β-D-laminaripentaoside [Compound 6] | 1.8 µg/mL | > 556 | – | > 1,000 μg/ml | comparing strength of effects on blood clotting [1]: dextran sulfate>1>6; clotting time ([1]; 0.01%): 7.4 ± 0.6 min; clotting time ([1]; 0.1%): 7.4 ± 0.6 min; clotting time ([1]; 1.0%): 21.1 ± 1.7 min; reciprocal number of concentration of the compound at 50% cell viability ([5]; 1 hour after i.v. injection): 145; reciprocal number of concentration of the compound at 50% cell viability ([5]; 4 hours after i.v. injection): 94; reciprocal number of concentration of the compound at 50% cell viability ([5]; 6 hours after i.v. injection): 60; reciprocal number of concentration of the compound at 50% cell viability ([5]; 12 hours after i.v. injection): 48; detection/duration of activity in serum [5]: detected at a high concentration
Heparin [reference compound] | – | – | – | – | clotting time ([1]; 120 U/ml, positive control): > 60 min
Sulfated dl-α-tocopheryl O-n-octanoyl-β-D-laminaripentaoside [Compound 34] | 16.0 µg/mL | 30 | 472 µg/mL | – | –
Sulfated dl-α-tocopheryl O-benzoyl-β-D-laminaripentaoside [Compound 44] | 0.52 µg/mL | 1,317 | 685 µg/mL | – | –
Sulfated dl-α-tocopheryl O-n-docosanoyl-β-D-laminaripentaoside [Compound 40] | 20.6 µg/mL | 27 | – | 546 µg/mL | –
dextran sulfate | – | – | – | – | reciprocal number of concentration of dextran sulfate at 50% cell viability ([5]; 20 min after i.v. injection): < 10; reciprocal number of concentration of dextran sulfate at 50% cell viability ([5]; 40 min after i.v. injection): < 10; reciprocal number of concentration of dextran sulfate at 50% cell viability ([5]; 60 min after i.v. injection): < 10; detection/duration of activity in serum [5]: could not be detected; comparing strength of effects on blood clotting [6]: dextran sulfate>1>6; absorption after oral administration [7]: poorly absorbed
Sulfated dl-α-tocopheryl O-benzoyl-β-D-laminaripentaoside [Compound 45] | 1.8 µg/mL | 357 | 642 µg/mL | – | –
Sulfated dl-α-tocopheryl O-n-butyryl-β-D-galactosyl-(1→4)-β-D-galactosyl-(1→4)-β-D-glucoside [Compound 41] | 5.4 µg/mL | 109 | 586 µg/mL | – | –
Sulfated dl-α-tocopheryl O-n-dodecanoyl-β-D-laminaripentaoside [Compound 36] | 3.9 µg/mL | 83 | 323 µg/mL | – | –
Sulfated 4-t-octylphenyl O-benzoyl-β-D-galactosyl-(1→4)-β-D-galactosyl-(1→4)-β-D-glucoside [Compound 17] | 76.3 µg/mL | 6 | – | 484 µg/mL | –
Sulfated 4-n-octylphenyl O-4-fluorobenzoyl-β-D-laminaripentaoside [Compound 9] | 14.1 µg/mL | 35 | – | 496 µg/mL | –
Sulfated dl-α-tocopheryl O-benzoyl-β-D-laminaripentaoside [Compound 46] | 3.9 µg/mL | 41 | 160 µg/mL | – | –
Sulfated 4-t-octylphenyl O-benzoyl-β-D-laminaripentaoside [Compound 14] | 16.4 µg/mL | 119 | – | 557 µg/mL | –
Sulfated dl-α-tocopheryl O-2,4-difluorobenzoyl-β-D-galactosyl-(1→4)-β-D-galactosyl-(1→4)-β-D-glucoside [Compound 43] | 3.3 µg/mL | 195 | – | 644 µg/mL | –
Sulfated 4-n-octylphenyl O-benzoyl-β-D-laminaripentaoside [Compound 8] | 6.8 µg/mL | 82 | – | 556 µg/mL | –
